In ChEMBL document CHEMBL1151280, “ent-Kaurane Diterpenoids from Isodon albopilosus” (J Nat Prod, 2005) one finds Activity and IC50 data, which are given here for 15 molecules.

In this assay the test system is HepG2. The experiment in a line: Cytotoxicity against human HepG2 cells after 24 hrs by Alamar blue assay. In kind it is functional, cell-based. The conditions noted are these: for IC50: HepG2, 24 h.

Each structure is given as a SMILES string.

In the case of `C=C1[C@H]2[C@@H](O)[C@@]3([C@H](O)C[C@H]4[C@@](C)(CCC[C@]4(C)C=O)[C@@H]3C[C@@H]2O)[C@@H]1OC(C)=O`, the Activity result is “Not toxic”.
The molecule `C=C1C(=O)[C@@]23[C@H](O)C[C@@H]4[C@@](C)(CO)CCC[C@@]4(C)[C@@H]2C[C@H](O)[C@@H]1[C@H]3O` [RABDOKUNMIN C] registered a half-maximal inhibitory concentration (IC50) of 42.1 µM.
For `C[C@@H]1[C@@H]2C(=O)C[C@H]3[C@]4(C)CCC[C@](C)(CO)[C@H]4C[C@@H](O)[C@@]3([C@@H]1O)[C@@H]2O`, the Activity entry is “Not toxic”.
With `C=C1C(=O)[C@@]23[C@H](O)C[C@H]4[C@@](C)(CCC[C@]4(C)C=O)[C@@H]2C[C@H](O)[C@@H]1[C@H]3O` [MACROCALYXIN C], the IC50 came out at 30.8 µM.
With `CC(=O)OC[C@@]1(C)CCC[C@]2(C)[C@@H]1C[C@@H](O)[C@@]13C(=O)[C@H](CO)[C@@H]([C@H]1O)[C@@H](O)C[C@@H]23`, the Activity entry is “Not toxic”.
The same measure, in the same setting: the value for `C=C1[C@@H](OC(C)=O)[C@@]23[C@H](O)C[C@@H]4[C@@](C)(CO)CCC[C@@]4(C)[C@@H]2CC[C@@H]1[C@H]3O` was “Not toxic”.
Regarding `C=C1C[C@@]23[C@H](O)C[C@@H]4[C@@](C)(CO)CCC[C@@]4(C)[C@@H]2C[C@H](O)[C@@H]1[C@H]3O`, the Activity result is “Not toxic”.
As to `C[C@H]1C(=O)[C@@]23[C@H](O)C[C@@H]4[C@@](C)(CO[C@@H]5O[C@H](CO)[C@@H](O)[C@H](O)[C@H]5O)CCC[C@@]4(C)[C@@H]2C[C@H](O)[C@@H]1[C@H]3O`, the Activity entry is “Not toxic”.
With `C=C1C(=O)[C@@]23[C@H](O)C[C@@H]4[C@@](C)(COC(C)=O)CCC[C@@]4(C)[C@@H]2C[C@H](O)[C@@H]1[C@H]3O` [ALBOPILOSIN A], the IC50 was determined as 24.9 µM.
Consider `C=C1C(=O)[C@@]23[C@H](O)C[C@H]4[C@@](C)(CCC[C@]4(C)C(=O)O)[C@@H]2CC[C@@H]1[C@H]3O`, for which the Activity result is “Not toxic”.
In turn, `C=C1C(=O)[C@@]23[C@H](O)C[C@@H]4[C@@](C)(CO)CCC[C@@]4(C)[C@@H]2CC[C@@H]1[C@H]3O` [EXCISANIN C] came in with an IC50 of 13.2 µM.
For `C=C1[C@H]2[C@@H](O)[C@@]3([C@H](O)C[C@@H]4[C@@](C)(CO)CCC[C@@]4(C)[C@@H]3C[C@@H]2O)[C@@H]1OC(C)=O`, the Activity result was “Not toxic”.
For the molecule `C=C1C(=O)[C@@]23[C@H](O)C[C@H]4[C@@](C)(CCC[C@]4(C)C=O)[C@@H]2CC[C@@H]1[C@H]3O` [ALBOPILOSIN H], the IC50 was 13.3 µM.
`C=C1C(=O)[C@@]23[C@H](O)C[C@H]4[C@@](C)(CCC[C@]4(C)C(=O)O)[C@@H]2C[C@H](O)[C@@H]1[C@H]3O`: the Activity result is “Not toxic”.
In the case of `C[C@H]1C(=O)[C@@]23[C@H](O)C[C@H]4[C@@](C)(CCC[C@]4(C)C(=O)O)[C@@H]2C[C@H](O)[C@@H]1[C@H]3O`, the Activity entry was “Not toxic”.

The term IC50 denotes the concentration needed to halve the response being measured.
